The values that follow come from paper PMC7221482 (Neurochemistry international, 2019).

Where a name gives a salt, the structure may show the parent alone. Read-outs that look alike come from different tables or passages of the source.

In general, Ki refers to a dissociation constant, usually derived from enzyme kinetics or from competition with a known ligand. Usually IC50 stands for the concentration needed to halve the response being measured. Broadly, the inhibition is how much of the control response was suppressed. Usually Kd stands for a measure of binding affinity in units of concentration.

The target in assay [1] is T1, hα4β2 AChRs ([3H]imipramine sites) (Homo sapiens, UniProt P17787+P43681). Nature of the assay: [3H]Imipramine competition binding to hα4β2 AChR-containing membranes.
The next assay has as its target hα4β2 AChRs (Homo sapiens, UniProt P17787+P43681). The class given is cell-based.
In assay [2] the target is T2, hα3β4 AChRs ([3H]imipramine sites) (Homo sapiens, UniProt P30926+P32297). In words: [3H]Imipramine competition binding to hα3β4 AChR-containing membranes.
The next assay addresses rα9α10 AChRs (Rattus norvegicus, UniProt P43144+Q9JLB5). The class given is cell-based.
Another assay has as its target hα3β4 AChRs (Homo sapiens, UniProt P30926+P32297). It is filed as cell-based.
The next assay has as its target habenular mα3β4* AChRs (Mus musculus, UniProt Q8R493+Q8R4G9). Nature of the assay: Patch-clamp recordings of ACh-evoked currents from MHb. It is filed as cell-based.
Another assay concerns the target hα7 AChRs (Homo sapiens, UniProt P36544). It is filed as cell-based.
Assay [3] concerns the target T1, hα4β2 AChRs ([3H]imipramine sites). As to conditions: read-out: Kd (dissociation constant), ref Arias et al., 2010b; cited from earlier work.
In assay [4] the target is T2, hα3β4 AChRs ([3H]imipramine sites). As to conditions: ref Arias et al., cited from earlier work.
[5] abbreviates: desensitized state, [3H]imipramine competition.

Consider `CN(C)CCCC1(c2ccc(F)cc2)OCc2cc(C#N)ccc21` (racemic) [(±)-citalopram, 1-[3-(dimethylamino)propyl]-1-(4-fluorophenyl)-1,3-dihydro-5-isobenzofurancarbonitrile], for which the Ki was determined as 4.1 ± 0.3 µM in assay [1]; 5.9 ± 0.4 µM in [1] (Ki (binding affinity), resting state, in the presence of 0.1 κ-bungarotoxin); 1.8 ± 0.1 µM in [2]. In addition, the “nH (Hill coefficient)” value was found to be 0.72 ± 0.03 in assay [1] (setting [5]); 1.24 ± 0.19 on hα4β2 AChRs (inhibition of (±)-epibatidine-induced Ca2+ influx, HEK293-hα4β2 cells); 0.74 ± 0.04 in assay [2] (setting [5]); 1.35 ± 0.10 on rα9α10 AChRs (inhibition of 10 μM ACh-evoked rα9α10 currents, Xenopus oocytes); 1.00 ± 0.10 at hα3β4 AChRs (inhibition of (±)-epibatidine-induced Ca2+ influx, HEK293-hα3β4 cells); 1.44 ± 0.22 at hα7 AChRs (inhibition of (±)-epibatidine-induced Ca2+ influx, GH3-hα7 cells). For the same compound, the half-maximal inhibitory concentration (IC50) against hα4β2 AChRs turned out to be 19.1 ± 4.2 µM; on rα9α10 AChRs it was 7.5 ± 0.9 µM; on hα3β4 AChRs, 5.1 ± 1.3 µM; against habenular mα3β4* AChRs (IC50(0), ligand concentration to produce 50% inhibition at 0 mV, one-site blocking model, Eq. (1)), 92 µM; at habenular mα3β4* AChRs (IC50, inhibition of 100 μM ACh puff-evoked currents, MHb (VI) neurons), 7.6 ± 1 µM; against hα7 AChRs it was 18.8 ± 1.1 µM. Besides, the “increase of the ACh EC50 value” at rα9α10 AChRs (8.0 μM (±)-citalopram, p = 0.0001) was 7.5 fold. For the same compound, the inhibition at 10 µM at rα9α10 AChRs (read-out: inhibition of ACh responses, 10 μM (±)-citalopram, 10 μM ACh, +40 mV) was 43.3 ± 4.9%; on rα9α10 AChRs (read-out: inhibition of ACh responses, 10 μM (±)-citalopram, 10 μM ACh, −90 mV) it was 46 ± 4.7%.

With `CC(=O)OCC[N+](C)(C)C` [ACh, acetylcholine], the “nH of ACh” value at rα9α10 AChRs (No (±)-citalopram) was 0.98 ± 0.2; on rα9α10 AChRs (in the presence of 8.0 μM (±)-citalopram) it was 1.11 ± 0.6.

Consider `CN(C)CCCN1c2ccccc2CCc2ccccc21` [[^3H]imipramine, [^3H]Imipramine hydrochloride], for which the Kd in assay [3] was 0.83 µM; in assay [4] (read-out: Kd (dissociation constant), hα3β4 AChRs, 2010c), 0.41 µM.

In the case of `CNCCC(Oc1ccc(C(F)(F)F)cc1)c1ccccc1` (centres unmarked) [fluoxetine], in assay [4] (hα3β4 AChR, [3H]imipramine sites, 2010a), the inhibition constant (Ki) was 4.8 ± 0.5 µM.
